Assay results: ChEMBL document CHEMBL6071124, “The search for pyruvate kinase-R activators; from a HTS screening hit via an impurity to the discovery of a lead series” (Bioorg Med Chem Lett, 2024); call rule not given here
pEC50: −log10 of the molar value. Values after ≈ are worked out from the molar mass of the structure shown. Blank lines part the entries; values can stand above or below the compound they belong to.

Tests used:
Pyruvate kinase PKLR [1] = biological target: T1, Pyruvate kinase PKLR (Homo sapiens, UniProt P30613); test: Activation of PKR (unknown origin)
T1 sequence (P30613 whole entry): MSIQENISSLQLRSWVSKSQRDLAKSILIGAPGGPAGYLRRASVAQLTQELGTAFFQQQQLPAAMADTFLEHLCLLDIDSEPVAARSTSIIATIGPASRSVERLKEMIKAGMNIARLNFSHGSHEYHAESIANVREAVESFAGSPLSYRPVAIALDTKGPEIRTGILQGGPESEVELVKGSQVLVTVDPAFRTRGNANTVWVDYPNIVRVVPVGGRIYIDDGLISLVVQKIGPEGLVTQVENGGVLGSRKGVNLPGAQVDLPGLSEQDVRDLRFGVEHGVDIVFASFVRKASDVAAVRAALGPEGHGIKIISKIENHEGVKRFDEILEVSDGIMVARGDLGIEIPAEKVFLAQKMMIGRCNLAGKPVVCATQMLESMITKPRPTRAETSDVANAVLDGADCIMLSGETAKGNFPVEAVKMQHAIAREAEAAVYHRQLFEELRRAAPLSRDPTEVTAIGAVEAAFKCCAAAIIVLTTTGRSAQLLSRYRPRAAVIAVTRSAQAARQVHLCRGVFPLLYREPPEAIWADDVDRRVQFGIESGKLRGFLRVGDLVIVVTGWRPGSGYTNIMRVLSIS

[2] = Half life in rat at 10 mg/kg, po; assay type: ADME, organism-based; details: in vivo
[3] = biological target: Voltage-gated inwardly rectifying potassium channel KCNH2 (Homo sapiens, UniProt Q12809); test: Inhibition of human ERG at >50 uM; assay type: toxicity
Chain of Voltage-gated inwardly rectifying potassium channel KCNH2 (Q12809 whole entry): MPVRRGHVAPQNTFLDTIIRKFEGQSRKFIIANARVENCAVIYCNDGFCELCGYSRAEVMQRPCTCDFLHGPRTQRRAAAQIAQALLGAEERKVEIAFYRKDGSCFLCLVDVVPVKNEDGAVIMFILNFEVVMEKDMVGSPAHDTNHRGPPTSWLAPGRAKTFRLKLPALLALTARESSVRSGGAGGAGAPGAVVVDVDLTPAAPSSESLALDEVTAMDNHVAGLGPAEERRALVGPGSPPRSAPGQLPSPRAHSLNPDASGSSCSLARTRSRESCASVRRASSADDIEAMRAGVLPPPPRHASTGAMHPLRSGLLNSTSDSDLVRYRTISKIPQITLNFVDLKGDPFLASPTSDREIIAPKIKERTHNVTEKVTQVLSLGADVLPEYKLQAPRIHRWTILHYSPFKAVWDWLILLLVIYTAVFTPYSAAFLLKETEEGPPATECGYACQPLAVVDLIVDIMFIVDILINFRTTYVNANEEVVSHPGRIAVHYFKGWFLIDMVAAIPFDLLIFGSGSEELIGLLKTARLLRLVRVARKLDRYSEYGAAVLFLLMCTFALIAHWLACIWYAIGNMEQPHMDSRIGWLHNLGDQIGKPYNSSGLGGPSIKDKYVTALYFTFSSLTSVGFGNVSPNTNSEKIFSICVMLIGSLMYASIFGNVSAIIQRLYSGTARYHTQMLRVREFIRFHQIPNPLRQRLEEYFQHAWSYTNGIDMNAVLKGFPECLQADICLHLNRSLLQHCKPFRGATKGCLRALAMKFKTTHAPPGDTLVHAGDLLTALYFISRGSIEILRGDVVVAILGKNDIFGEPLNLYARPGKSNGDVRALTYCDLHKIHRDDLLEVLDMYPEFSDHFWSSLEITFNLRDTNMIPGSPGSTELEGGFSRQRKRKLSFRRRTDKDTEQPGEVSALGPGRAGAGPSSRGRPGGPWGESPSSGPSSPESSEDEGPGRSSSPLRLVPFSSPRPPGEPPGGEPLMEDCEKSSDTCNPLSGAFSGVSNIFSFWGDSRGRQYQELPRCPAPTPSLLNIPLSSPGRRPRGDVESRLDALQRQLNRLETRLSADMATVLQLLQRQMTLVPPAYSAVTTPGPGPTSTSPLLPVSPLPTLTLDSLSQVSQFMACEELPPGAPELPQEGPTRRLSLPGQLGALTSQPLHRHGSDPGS

[4] = Permeability of the compound across apical to basolateral side; assay type: ADME; details: not told; read-out: permeability
[5] = Genotoxicity in Salmonella typhimurium; assay type: toxicity; details: salmonella enterica subsp. enterica serovar typhimurium
[6] = AUC in rat at 10 mg/kg, po; assay type: ADME, organism-based; details: in vivo
[7] = Solubility of the compound; assay type: physicochemical
aromatase = biological target: T2, aromatase (Homo sapiens, UniProt P11511); test: Inhibition of aromatase (unknown origin) at 10 uM relative to control
T2 sequence (P11511 whole entry): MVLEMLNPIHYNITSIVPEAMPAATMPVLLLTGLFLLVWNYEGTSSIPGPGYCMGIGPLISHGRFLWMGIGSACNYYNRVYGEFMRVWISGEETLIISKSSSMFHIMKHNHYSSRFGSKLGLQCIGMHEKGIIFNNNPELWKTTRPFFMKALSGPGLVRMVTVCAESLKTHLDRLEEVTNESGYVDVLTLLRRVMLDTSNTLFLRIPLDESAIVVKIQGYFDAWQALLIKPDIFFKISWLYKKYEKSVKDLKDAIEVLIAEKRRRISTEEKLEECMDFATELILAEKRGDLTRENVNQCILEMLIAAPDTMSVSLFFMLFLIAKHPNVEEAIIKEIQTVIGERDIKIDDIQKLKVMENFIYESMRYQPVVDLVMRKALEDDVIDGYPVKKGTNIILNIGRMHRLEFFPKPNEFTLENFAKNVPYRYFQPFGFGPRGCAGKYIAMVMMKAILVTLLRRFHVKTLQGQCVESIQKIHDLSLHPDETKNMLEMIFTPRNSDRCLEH

Pyruvate kinase PKLR [8] = biological target: T1, Pyruvate kinase PKLR; test: Activation of PKR (unknown origin) by differential scanning fluorimetry analysis

half-life [2]: 2.4 h
Papp A→B [4]: 1.2 ×10⁻⁶ cm/s
AUC [6]: 2.9 µM·h
solubility [7]: 59 µM (≈ 29 µg/mL)
inhibition at 10 µM (aromatase): 17%
Structure (SMILES): Cc1nc(CNC(=O)NCc2ncnn2-c2ccc3cccnc3c2)n(-c2ccc(Cl)c(F)c2)n1
inhibition (INH) [3]: Not Active
Activity [5]: Non-Toxic

pEC50 (Pyruvate kinase PKLR [1]): 4.00
Structure (SMILES): O=C(NCc1nnnn1-c1ccc(F)c(F)c1)Nc1cccs1

The next lines start with the compound.

Structure (SMILES): Cc1ccc(-n2nnnc2CNC(=O)NC2CCCCC2)cc1C
pEC50 (Pyruvate kinase PKLR [1]): 4.00

Structure (SMILES): Cc1ccc(-n2nnnc2CNC(=O)Nc2ccccc2)cc1C
pEC50 (Pyruvate kinase PKLR [1]): 4.00

Structure (SMILES): O=C(NCc1nnnn1-c1ccc(Cl)cc1)Nc1cccs1
pEC50 (Pyruvate kinase PKLR [1]): 4.00

Structure (SMILES): Cc1cnccc1CNC(=O)c1cc(COc2ccc3c(c2)OCO3)[nH]n1
pEC50 (Pyruvate kinase PKLR [8]): 4.24
